From PubChem BioAssay (NCI)
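GI50 is the concentration that inhibits growth by half. TGI: concentration producing complete growth inhibition.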

Tests used:
Assay in all cases: growth of human tumour cells (NCI), 384-well format
M14 melanoma = system: M14 melanoma
PC-3 prostate = system: PC-3 prostate
U251 glioblastoma = system: U251 glioblastoma
HS 578T breast = system: HS 578T breast
K-562 leukemia = system: K-562 leukemia
NCI-H226 lung = system: NCI-H226 lung
MDA-MB-231 breast = system: MDA-MB-231 breast
SR leukemia = system: SR leukemia
SK-OV-3 ovarian = system: SK-OV-3 ovarian
UO-31 renal = system: UO-31 renal
SK-MEL-28 melanoma = system: SK-MEL-28 melanoma
MCF7 breast = system: MCF7 breast
HT29 colon = system: HT29 colon
SN12C renal = system: SN12C renal
RPMI-8226 leukemia = system: RPMI-8226 leukemia
HOP-92 NSCLC = system: HOP-92 NSCLC
HL-60(TB) leukemia = system: HL-60(TB) leukemia
NCI-H460 NSCLC = system: NCI-H460 NSCLC
LOX IMVI melanoma = system: LOX IMVI melanoma
SNB-19 CNS = system: SNB-19 CNS
RXF 393 renal = system: RXF 393 renal
SF-268 CNS = system: SF-268 CNS
BT-549 breast = system: BT-549 breast
MDA-MB-435 melanoma = system: MDA-MB-435 melanoma
SNB-75 CNS = system: SNB-75 CNS
IGROV1 ovarian = system: IGROV1 ovarian
MALME-3M melanoma = system: MALME-3M melanoma
ACHN renal = system: ACHN renal
TK-10 renal = system: TK-10 renal
EKVX NSCLC = system: EKVX NSCLC
HOP-62 NSCLC = system: HOP-62 NSCLC
KM12 colon = system: KM12 colon
NCI-H23 lung = system: NCI-H23 lung
CAKI-1 renal = system: CAKI-1 renal
MDA-MB-468 breast = system: MDA-MB-468 breast
SF-539 CNS = system: SF-539 CNS
CCRF-CEM leukemia = system: CCRF-CEM leukemia
UACC-62 melanoma = system: UACC-62 melanoma
OVCAR-3 ovarian = system: OVCAR-3 ovarian
OVCAR-5 ovarian = system: OVCAR-5 ovarian
MOLT-4 leukemia = system: MOLT-4 leukemia
NCI-H522 lung = system: NCI-H522 lung
A549 NSCLC = system: A549 NSCLC
SK-MEL-5 melanoma = system: SK-MEL-5 melanoma
SK-MEL-2 melanoma = system: SK-MEL-2 melanoma
786-0 renal = system: 786-0 renal
COLO 205 colon = system: COLO 205 colon
HCT-116 colon = system: HCT-116 colon
A498 renal = system: A498 renal
HCT-15 colon = system: HCT-15 colon
DU-145 prostate = system: DU-145 prostate
SF-295 CNS = system: SF-295 CNS
UACC-257 melanoma = system: UACC-257 melanoma
SW-620 colon = system: SW-620 colon
OVCAR-4 ovarian = system: OVCAR-4 ovarian
HCC-2998 colon = system: HCC-2998 colon
NCI-H322M lung = system: NCI-H322M lung

Cc1[nH]c2ccc(F)cc2c1-c1nc2c3cccnc3c3ncccc3c2[nH]1
GI50 (M14 melanoma): 192 nM | TGI (M14 melanoma): 472 nM | GI50 (PC-3 prostate): 69.9 nM | TGI (PC-3 prostate): > 100000 nM | GI50 (U251 glioblastoma): 63.7 nM | TGI (U251 glioblastoma): 710 nM | GI50 (HS 578T breast): 318 nM | TGI (HS 578T breast): 12100 nM | GI50 (K-562 leukemia): 217 nM | TGI (K-562 leukemia): > 100000 nM | GI50 (NCI-H226 lung): 147 nM | TGI (NCI-H226 lung): 683 nM | GI50 (MDA-MB-231 breast): 228 nM | TGI (MDA-MB-231 breast): 2930 nM | GI50 (SR leukemia): 19.2 nM | TGI (SR leukemia): 33.9 nM | GI50 (SK-OV-3 ovarian): 44.9 nM | TGI (SK-OV-3 ovarian): 9450 nM | GI50 (UO-31 renal): 319 nM | TGI (UO-31 renal): 7710 nM | GI50 (SK-MEL-28 melanoma): 272 nM | TGI (SK-MEL-28 melanoma): > 100000 nM | GI50 (MCF7 breast): 298 nM | TGI (MCF7 breast): 40300 nM | GI50 (HT29 colon): 338 nM | TGI (HT29 colon): > 100000 nM | GI50 (SN12C renal): 161 nM | TGI (SN12C renal): 397 nM | GI50 (RPMI-8226 leukemia): 3110 nM | TGI (RPMI-8226 leukemia): 15000 nM | GI50 (HOP-92 NSCLC): 194 nM | TGI (HOP-92 NSCLC): 742 nM | GI50 (HL-60(TB) leukemia): 45.3 nM | TGI (HL-60(TB) leukemia): 176 nM | GI50 (NCI-H460 NSCLC): 367 nM | TGI (NCI-H460 NSCLC): 4260 nM | GI50 (LOX IMVI melanoma): 62.5 nM | TGI (LOX IMVI melanoma): 231 nM | GI50 (SNB-19 CNS): 241 nM | TGI (SNB-19 CNS): 883 nM | GI50 (RXF 393 renal): 31.4 nM | TGI (RXF 393 renal): 192 nM | GI50 (SF-268 CNS): 25 nM | TGI (SF-268 CNS): 83.1 nM | GI50 (BT-549 breast): 41.8 nM | TGI (BT-549 breast): 254 nM | GI50 (MDA-MB-435 melanoma): 306 nM | TGI (MDA-MB-435 melanoma): > 100000 nM | GI50 (SNB-75 CNS): 230 nM | TGI (SNB-75 CNS): 759 nM | GI50 (IGROV1 ovarian): 182 nM | TGI (IGROV1 ovarian): 32900 nM | GI50 (MALME-3M melanoma): 195 nM | TGI (MALME-3M melanoma): 743 nM | GI50 (ACHN renal): 241 nM | TGI (ACHN renal): 686 nM | GI50 (TK-10 renal): 450 nM | TGI (TK-10 renal): 18800 nM | GI50 (EKVX NSCLC): 122 nM | TGI (EKVX NSCLC): 14200 nM | GI50 (HOP-62 NSCLC): 129 nM | TGI (HOP-62 NSCLC): 345 nM | GI50 (KM12 colon): 266 nM | TGI (KM12 colon): > 100000 nM | GI50 (NCI-H23 lung): 233 nM | TGI (NCI-H23 lung): 704 nM | GI50 (CAKI-1 renal): 218 nM | TGI (CAKI-1 renal): 572 nM | GI50 (MDA-MB-468 breast): 74.5 nM | TGI (MDA-MB-468 breast): 214 nM | GI50 (SF-539 CNS): 125 nM | TGI (SF-539 CNS): 404 nM | GI50 (CCRF-CEM leukemia): 37.6 nM | TGI (CCRF-CEM leukemia): 136 nM | GI50 (UACC-62 melanoma): 204 nM | TGI (UACC-62 melanoma): 587 nM | GI50 (OVCAR-3 ovarian): 27.8 nM | TGI (OVCAR-3 ovarian): 22200 nM | GI50 (OVCAR-5 ovarian): 298 nM | TGI (OVCAR-5 ovarian): 17600 nM | GI50 (MOLT-4 leukemia): 37.4 nM | TGI (MOLT-4 leukemia): 151 nM | GI50 (NCI-H522 lung): 244 nM | TGI (NCI-H522 lung): 852 nM | GI50 (A549 NSCLC): 421 nM | TGI (A549 NSCLC): > 100000 nM | GI50 (SK-MEL-5 melanoma): 25.2 nM | TGI (SK-MEL-5 melanoma): 119 nM | GI50 (SK-MEL-2 melanoma): 353 nM | TGI (SK-MEL-2 melanoma): 934 nM | GI50 ([…]-0 renal): 176 nM | TGI (786-0 renal): 586 nM | GI50 (COLO 205 colon): 35.3 nM | TGI (COLO 205 colon): 141 nM | GI50 (HCT-116 colon): 52.1 nM | TGI (HCT-116 colon): 654 nM | GI50 (A498 renal): 205 nM | TGI (A498 renal): > 100000 nM | GI50 (HCT-15 colon): 245 nM | TGI (HCT-15 colon): 29900 nM | GI50 (DU-145 prostate): 60.7 nM | TGI (DU-145 prostate): 413 nM | GI50 (SF-295 CNS): 303 nM | TGI (SF-295 CNS): 12000 nM | GI50 (UACC-257 melanoma): 227 nM | TGI (UACC-257 melanoma): 603 nM | GI50 (SW-620 colon): 336 nM | TGI (SW-620 colon): > 100000 nM | GI50 (OVCAR-4 ovarian): 96 nM | TGI (OVCAR-4 ovarian): > 100000 nM | GI50 (HCC-2998 colon): 24.2 nM | TGI (HCC-2998 colon): > 100000 nM | GI50 (NCI-H322M lung): 125 nM | TGI (NCI-H322M lung): 28500 nM
